Laboratory results taken from patent publication US8853282B1, “Topical liquid insecticide compositions” (priority 2014, dated 2014).
Converted amounts (≈) assume the structure as drawn.

Tests used:
[1] = Solubility in aprotic polar solvents; assay type: physicochemical
Source text: Dinotefuran is a hydrophilic compound that will dissolve in water (approx. 40 g/L). While dinotefuran is most preferred, nitenpyram is highly hydrophilic and could be used in formulations where higher levels of neo-nicotinoid would be desirable. The ether pyrethroid etofenprox will dissolve in some aprotic polar solvents to provide up to 40-60 weight percent while most ester pyrethroids had little solubility. Other ether pyrethroids may be useful provided they have insecticidal activity and may be desirable because of cost and relatively low hydrophobicity.

fleas = details: cited from earlier work
ticks = details: cited from earlier work
felines = details: cited from earlier work
[2] = cited from earlier work

SMILES	dissolves in some aprotic polar solvents [1]	kill of fleas (fleas)	kill of ticks (ticks)	toxicity to felines (felines)	solubility in water [2] [mg/mL]	Water Solubility [2] [mg/mL]	dissolve in water [2]
CCOc1ccc(C(C)(C)COCc2cccc(Oc3ccccc3)c2)cc1 [Etofenprox]	40-60 weight percent	will kill both fleas and ticks	will kill both fleas and ticks	not toxic to felines	0.001 (≈ 2.66 µM)		
CCN(Cc1ccc(Cl)nc1)/C(=C/[N+](=O)[O-])NC [Nitenpyram]						840	
CN/C(=N/CC1CCOC1)N[N+](=O)[O-] (centres unmarked) [Dinotefuran]		will kill fleas	not ticks			39.83	approx. 40 g/L
C/C(=N\C#N)N(C)Cc1ccc(Cl)nc1 [Acetamiprid]						2.95	
